Measured values: US20130344140A1, “NOVEL PHARMACEUTICAL COMBINATIONS AND METHODS FOR TREATING CANCER” (Agency for Science, Technology and Research, priority 2011, published 2013)
Entries after “also recorded” stand apart in the source; their conditions may differ. Read-outs that look alike come from different tables or passages of the source.

Columns and labels:
[1] = system: ATM; experiment: ATM / DNA damage checkpoint dependence of VX-680-induced G2 arrest (western blot, DNA FACS profiles); assay type: cell-based
Protocol: For western blotting, cell extracts were prepared using NP-40 lysis buffer (50 mM Tris-HCl (pH 8.0), 150 mM NaCl, 1% NP-40, 5 mM EDTA supplemented with protease and phosphatase inhibitor cocktails (Sigma).

[2] = system: A549 cells; experiment: Colony survival assay, A549; assay type: cell-based; set-up: enhancement of the fraction of surviving colonies: dose or concentration left out as unconfirmed
Protocol: (§1) Colonies were counted 2 weeks after recovery in drug-free media. Cells were fixed with glutaraldehyde and stained with crystal violet. Plates are scanned and colonies were counted with an automated image analyzer. Three independent experiments were performed for each cell line.
(§2) Each data point represents the mean±S.D.
(§3) A total of 1000 cells were plated on each 10 cm plate and allowed to adhere overnight. […] After 48 h, cells were washed and recovered in fresh media for 12 days. Cells were then fixed in 6% glutaraldehyde (Sigma) and stained with crystal violet. Colonies were counted using GelCount™ (Oxford Optronix, Oxford, England). Each condition was carried out in triplicate.

[3] = system: human keratinocytes; settings: for tetraploidy / endoreduplication after nutlin pretreatment: keratinocytes pretreated with nutlin-3 16 h, then VX-680 (200 nM) 48 h
Protocol: Primary human keratinocytes were purchased from Invitrogen and cultured in defined keratinocyte serum-free media (Invitrogen). All cell lines were cultured in a CO2 incubator (5% CO2 and 21% O2) at 37° C.
For analysis of cell cycle distribution, cells were harvested and fixed in 70% ethanol/PBS solution. Cells were stained in propidium-iodide containing solution (25 μg/ml propidium iodide supplemented with 1 mg/ml RNase A, in PBS (pH 7.8); Sigma Chemical, St Louis, Mo., USA) for 15 min at room temperature.

[4] = system: HCT116p53+/+ (green) and HCT116p53−/− (red) cells; experiment: Co-culture of HCT116p53+/+ GFP and HCT116p53−/− RFP cells; assay type: cell-based; settings: mixed population pretreated with nutlin-3 then VX-680, 5 days after drugs removal
From the text: (e) is a schematic illustration of fluorescent microscopy images of HCT116 p53+/+ and p53−/− cells that were transduced with recombinant lentiviruses carrying GFP and RFP genes, respectively. The cells were selected in zeocin for 2 weeks to achieve the stable cell lines, HCT116 p53+/+GFP and HCT116 p53−/− RFP. Equal numbers of HCT116 p53+/+GFP and p53−/− RFP were mixed and seeded to achieve 30% growth confluency. […] Cells were then washed twice with drug-free media and allowed to recover for 5 days in fresh complete media. Microscopy images were taken with Deltavision (Axio). […] Insets 1 and 2 show higher magnification of the images on the left.
We further studied the responses of p53 wild-type and p53-deficient cells in co-culture system, in which both cell types were cultured together for the duration of the experiment. HCT116p53+/+ and the HCT116p53−/− cells were distinguished using green fluorescent protein (GFP) and red fluorescent protein (RFP) fluorescent markers. Equal numbers of HCT116p53+/+ (green) and HCT116p53−/− (red) cells were mixed and plated in 10 cm plates, before exposure to a similar drug dosage regimen as described in FIG. 6c.

[5] = system: HCT116 p53+/+ cells; experiment: Cell cycle analysis of HCT116 p53+/+ cells (nutlin-3, VX-680); assay type: cell-based; settings: HCT116p53+/+
Protocol: (a) is a comparison of the DNA profiles of P53+/+ and p53−/− cells after treatment with VX-680. HCT116 p53+/+ and p53−/− cells were incubated with 200 nM VX-680 and cells were harvested at the indicated time points for analysis of cell cycle distribution.
(b) is a comparison of the DNA profiles of p53+/+ and p53−/− cells with pre-treatment of Nutlin before incubation with VX-680.

[6] = system: A549 cells; experiment: Micronuclei formation and γH2AX staining (immunofluorescence microscopy) in A549 cells; assay type: cell-based; settings: A549; nutlin-3 only, or nutlin-3 16 h before VX-680 48 h
Protocol: Cells were fixed and stained for γH2AX (green) as described in Materials and Methods in the Examples. Nuclei were counterstained with DAPI blue. Visualization of nuclei and γH2AX positive foci was done by fluorescence microscopy.
Indirect immunofluorescence was carried out as described previously.^14 g-H2AX (Novus Biologicals, Littleton, Colo., USA, NB 100-383) and anti-rabbit Alexa 488-coupled secondary antibody (Molecular Probes, Carlsbad, Calif., USA) were used. Nuclei were counterstained with Hoechst 33342 (Molecular Probes). Immunofluorescence was visualized using Axiolmager Z1 (Zeiss, Gottingen, Germany).

[7] = system: p53-deficient HCT116; experiment: Colony survival assay, p53-deficient HCT116; assay type: cell-based; settings: p53-deficient HCT116, nutlin-3 pretreatment before VX-680
Protocol: as §1, §2, §3

[8] = system: A549 cells; experiment: Cell cycle / BrdU analysis of A549 cells pretreated with nutlin-3 before VX-680; assay type: cell-based
Protocol: Cells were treated with 200 nM VX-680 for 24 h and incubated with […] BrdU for 30 min. […] BrdU-positive cells in untreated control sample (upper left panel) and BrdU-positive cells that are […] DNA (endoreduplicating cells) (upper right panel) are highlighted in the boxes and the percentages over the total cell population are indicated.
(b) is a schematic diagram showing the timing and order of addition of drugs. At 48 h after VX-680 treatment, cells were washed in drug-free media and incubated in drug-free media for another 48, 96 or 120 h. Cell cycle distribution was analyzed by flow cytometry. Also shown are the DNA profiles obtained using the drug treatment protocol depicted in (a).
Cells were incubated in DMEM containing […] BrdU for 30 min in a 37° C./5% CO2 incubator. Detection of BrdU-labeled cells was performed using the In Situ Cell Proliferation Kit from Roche. In brief, cells were harvested and fixed using a 70% ethanol/50 mM Glycine (pH 2.0) on ice. Cells were pelleted and resuspended in the HCl-denaturation solution at room temperature for 20 min. Cells were then pelleted and 50 μl anti-BrdU-FLUOS antibody was added to the cells and incubated for 45 min at 37° C. in a humidified chamber. For staining of total DNA, 7-AAD was added to the cells, followed by incubation at room temperature for 10 min. Cells were analyzed immediately using flow cytometry (BD LSR II System).

[9] = system: MDA-MB 468 and HCT116 p53−/−; experiment: Annexin V apoptosis assay, p53-compromised cell lines; assay type: cell-based; settings: p53-compromised cells pretreated with nutlin-3 before VX-680
Protocol: Cells were then harvested and stained for annexin V to detect apoptotic cells.
For analysis of apoptosis, cells were harvested without fixation. Apoptosis was evaluated using the annexin V (fluorescein isothiocyanate (FITC))-propidium iodide binding assay (Roche, Indianapolis, Ind., USA). The extent of apoptosis was quantified as a percentage of annexin V-positive cells over the total cell population. Flow cytometric analysis was performed on a BD LSR II System (BD Biosciences, Stockholm, Sweden). Data were analyzed using FlowJo software and ModFit LT (Verity Software House, Topsham, Me., USA).

[10] = system: HCT116p53+/+ cells; experiment: Colony survival assay, HCT116p53+/+; assay type: cell-based; settings: pretreated with nutlin-3, versus VX-680 alone
Protocol: as §1, §2, §3

Structure (SMILES): O=c1cc(-c2cccc3c2Sc2ccccc2S3)oc(N2CCOCC2)c1 [KU55933]
- γH2AX and ATM-S1981 phosphorylation in response to doxorubicin ([1]; KU55933 with 1 μM doxorubicin): abrogates the observed phosphorylation in a dose-dependent manner; also recorded: clearly reduced
- effect on VX-680-induced G2 arrest ([1]; pre-treatment with KU55933 before VX-680): does not abrogate

Structure (SMILES): COc1cccc2c1C(=O)c1c(O)c3c(c(O)c1C2=O)C[C@@](O)(C(=O)CO)C[C@@H]3O[C@H]1C[C@H](N)[C@H](O)[C@H](C)O1 [doxorubicin]
- phospho-S1981 ATM, phospho-H2AX, phospho-S15 p53 ([1]; 1 μM doxorubicin): accumulation

Structure (SMILES): COc1ccc(C2=N[C@@H](c3ccc(Cl)cc3)[C@@H](c3ccc(Cl)cc3)N2C(=O)N2CCNC(=O)C2)c(OC(C)C)c1 [nutlin-3]
- enhancement of the fraction of surviving colonies ([2]; A549, pretreated with for 16 h before VX-680 48 h, versus VX-680 alone): up to 20 fold
- number of surviving colonies ([2]; nutlin alone): moderately decreases
- cellular viability [3]: high cellular viability
- tetraploidy / endoreduplication after nutlin pretreatment ([3]; listed as Nutlin): did not show significant tetraploidy
- tetraploidy / endoreduplication after nutlin pretreatment ([3]; listed as Nutlin-3): protects primary human keratinocytes from endoreduplication
- number of HCT116p53+/+ (green) cells versus HCT116p53−/− (red) cells [4]: far more than
- cell cycle arrest by nutlin [5]: induced an arrest
- protection from VX-680-induced endoreduplication by nutlin pretreatment ([5]; nutlin-3 16 h then VX-680 (200 nM) and nutlin-3 48 h): protects
- frequency of micronuclei and γH2AX staining [6]: low frequency
- colony survival rate [7]: did not affect
- cell cycle arrest of nutlin-3-pretreated cells ([8]; A549, nutlin-3 (5 µM) before VX-680 treatment, 48 h VX-680, confirmed by BrdU assay): arrested cells even after 48 h of VX-680 exposure
- cell cycle arrest of nutlin-3-pretreated cells ([8]; A549, nutlin-3 (5 μM) followed by VX-680 (200 nM)): remained arrested at G1
- DNA profile after recovery in drug-free media ([8]; A549, nutlin-3 pretreatment then VX-680, recovered in drug-free media): normal diploid DNA profile
- degree of apoptosis with nutlin-3 pretreatment [9]: no significant difference
- better survival (colony formation) [10]: up to 15 fold
